As usually defined, the Kd is the equilibrium constant for the complex coming apart. Usually IC50 stands for the concentration that gives 50% inhibition. A lower IC50 goes with greater potency.

Test [1] concerns the target human SOS1 (Homo sapiens (Human), UniProt Q07889). The experiment in a line: Surface Plasmon Resonance (SPR) SOS1 Binding Assay. Particulars: biotinylated SOS1 (res. 564-1049), Biacore 8K, 25° C., kinetic or steady state fit, 1:1 binding; read-out: hSOS1 KD. The method in brief:
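Biotinylated Avi-tagged human SOS1 (res. 564-1049) captured on streptavidin chip (~3,000 RU); compounds injected 60 s, dissociation 600 s, at 25° C in Tris pH 8.0 buffer with 5% DMSO. Reference- and blank-subtracted; KD from kinetic or steady-state 1:1 binding fit.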

Test [2] addresses SOS1:KRAS (G12C) interaction (Homo sapiens (Human), UniProt Q07889). In words: SOS1 KRas(G12C) FRET Assay. To be noted: 0.5 nM His10-SOS1 (res. 564-1049), 2.5 nM GST-KRAS G12C (res. 1-169), 2 hrs at RT. The test is classed as binding. The procedure, abridged:
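GST-KRAS G12C (res. 1-169) at 2.5 nM and His10-SOS1 (res. 564-1049) at 0.5 nM, final, in PBS with 0.1% BSA, 5 mM MgCl2, 100 mM KF, 5 mM DTT and 0.5% DMSO. After 2 h at RT, FRET read at 665/615 nm and normalized to DMSO and no-SOS1 controls. IC50 by non-linear regression.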

Chain of SOS1:KRAS (G12C) interaction (Q07889 564-1049, stated change not applied): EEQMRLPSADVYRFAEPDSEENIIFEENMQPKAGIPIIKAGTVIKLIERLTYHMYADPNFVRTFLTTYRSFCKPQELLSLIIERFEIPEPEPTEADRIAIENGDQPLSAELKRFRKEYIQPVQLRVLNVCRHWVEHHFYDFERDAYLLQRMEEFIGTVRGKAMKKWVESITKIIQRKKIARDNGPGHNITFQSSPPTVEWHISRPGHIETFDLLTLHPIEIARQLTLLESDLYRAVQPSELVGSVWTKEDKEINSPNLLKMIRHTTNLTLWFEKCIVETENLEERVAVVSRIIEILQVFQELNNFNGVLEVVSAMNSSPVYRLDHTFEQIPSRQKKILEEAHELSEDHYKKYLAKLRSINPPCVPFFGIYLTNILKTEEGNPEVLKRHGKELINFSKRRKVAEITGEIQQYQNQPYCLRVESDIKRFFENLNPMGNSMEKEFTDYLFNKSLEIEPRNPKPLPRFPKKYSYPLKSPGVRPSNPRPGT
Chain of human SOS1 (Q07889 564-1049): as the sequence (Q07889 564-1049, stated change not applied) above

`C[C@@H](NC(=O)c1cn([C@H]2C[C@H](F)C2)c(=O)cc1N[C@H]1[C@@H]2CN(C)C[C@@H]21)c1cccc(C(F)F)c1F` [Example 97, N-((R)-1-(3-(difluoromethyl)-2-fluorophenyl)ethyl)-1-((1r,3R)-3-fluorocyclobutyl)-4-(((1R,5S,6s)-3-methyl-3-azabicyclo[3.1.0]hexan-6-yl)amino)-6-oxo-1,6-dihydropyridine-3-carboxamide]: the Kd in test [1] is 7 nM. The same molecule gave an IC50 in test [2] of 16.7 nM.

On to `C[C@@H](NC(=O)c1cn(C23CC(C)(C2)C3)c(=O)cc1N[C@H]1[C@@H]2CN(C)C[C@@H]21)c1cccc(C(F)F)c1F` [Example 98, N-((R)-1-(3-(difluoromethyl)-2-fluorophenyl)ethyl)-4-(((1R,5S,6s)-3-methyl-3-azabicyclo[3.1.0]hexan-6-yl)amino)-1-(3-methylbicyclo[1.1.1]pentan-1-yl)-6-oxo-1,6-dihydropyridine-3-carboxamide], for which, in test [1], the Kd worked out at 6 nM. The same molecule showed an IC50 in test [2] of 13.4 nM.

On to `CC(C)n1cc(C(=O)N[C@H](C)c2cccc(C(F)F)c2F)c(N[C@H]2[C@@H]3CN(C)C[C@@H]32)cc1=O` [Example 99, N-((R)-1-(3-(difluoromethyl)-2-fluorophenyl)ethyl)-1-isopropyl-4-(((1R,5S,6s)-3-methyl-3-azabicyclo[3.1.0]hexan-6-yl)amino)-6-oxo-1,6-dihydropyridine-3-carboxamide], for which, in test [1], the Kd was found to be 30 nM. This molecule also gave an IC50 in test [2] of 64.8 nM.

As for `C[C@@H](NC(=O)c1cn(C2CC(F)(F)C2)c(=O)cc1N[C@H]1[C@@H]2CN(C)C[C@@H]21)c1cccc(C(F)F)c1F` [Example 100, 1-(3,3-difluorocyclobutyl)-N-((R)-1-(3-(difluoromethyl)-2-fluorophenyl)ethyl)-4-(((1R,5S,6s)-3-methyl-3-azabicyclo[3.1.0]hexan-6-yl)amino)-6-oxo-1,6-dihydropyridine-3-carboxamide], in test [1], the Kd was 10 nM. Also, the IC50 in test [2] was found to be 18.2 nM.

In the case of `C[C@@H](NC(=O)c1cn(C2CC2)c(=O)cc1N[C@H]1[C@@H]2CN(C)C[C@@H]21)c1cccc(C(F)F)c1F` [Example 101, 1-cyclopropyl-N-((R)-1-(3-(difluoromethyl)-2-fluorophenyl)ethyl)-4-(((1R,5S,6s)-3-methyl-3-azabicyclo[3.1.0]hexan-6-yl)amino)-6-oxo-1,6-dihydropyridine-3-carboxamide], the Kd in test [1] came to 11 nM. In test [2], this molecule returned a half-maximal inhibitory concentration (IC50) of 24 nM.

Turning to `C[C@@H](NC(=O)c1cn(C23CC(F)(C2)C3)c(=O)cc1N[C@H]1[C@@H]2CN(C)C[C@@H]21)c1cccc(C(F)F)c1F` [Example 102, N-((R)-1-(3-(difluoromethyl)-2-fluorophenyl)ethyl)-1-(3-fluorobicyclo[1.1.1]pentan-1-yl)-4-(((1R,5S,6s)-3-methyl-3-azabicyclo[3.1.0]hexan-6-yl)amino)-6-oxo-1,6-dihydropyridine-3-carboxamide], in test [1], the Kd was 8 nM. In test [2], half-maximal inhibition (IC50) was put at 12.1 nM.

For `C[C@@H](NC(=O)c1cn(C23CC(C(F)F)(C2)C3)c(=O)cc1N[C@H]1[C@@H]2CN(C)C[C@@H]21)c1cccc(C(F)F)c1F` [Example 105, N-((R)-1-(3-(difluoromethyl)-2-fluorophenyl)ethyl)-1-(3-(difluoromethyl)bicyclo [1. 1.1]pentan-1-yl)-4-(((1R,5S,6s)-3-methyl-3-azabicyclo[3.1.0]hexan-6-yl)amino)-6-oxo-1,6-dihydropyridine-3-carboxamide], the Kd in test [1] came to 9 nM. The IC50 in test [2] came out at 13 nM.

Take `C[C@@H](NC(=O)c1cn(C23CC(C(F)(F)F)(C2)C3)c(=O)cc1N[C@H]1[C@@H]2CN(C)C[C@@H]21)c1cccc(C(F)F)c1F` [Example 106, N-((R)-1-(3-(difluoromethyl)-2-fluorophenyl)ethyl)-4-(((1R,5S,6s)-3-methyl-3-azabicyclo[3.1.0]hexan-6-yl)amino)-6-oxo-1-(3-(trifluoromethyl)bicyclo[1. 1.1]pentan-1-yl)-1,6-dihydropyridine-3-carboxamide]: the Kd in test [1] was 19 nM. The molecule also registered an IC50 in test [2] of 16.8 nM.

With `C[C@@H](NC(=O)c1cn(C2CC3(CC3)C2)c(=O)cc1N[C@H]1[C@@H]2CN(C)C[C@@H]21)c1cccc(C(F)F)c1F` [Example 107, N-((R)-1-(3-(difluoromethyl)-2-fluorophenyl)ethyl)-4-(((1R,5S,6s)-3-methyl-3-azabicyclo[3.1.0]hexan-6-yl)amino)-6-oxo-1-(spiro[2.3]hexan-5-yl)-1,6-dihydropyridine-3-carboxamide], in test [1], the Kd was found to be 3 nM. Also, the midpoint of inhibition in test [2], the IC50, lay at 8.4 nM.

Turning to `C[C@@H](NC(=O)c1cn(C(C)(C)C2CC2)c(=O)cc1N[C@H]1[C@@H]2CN(C)C[C@@H]21)c1cccc(C(F)F)c1F` [Example 108, 1-(2-cyclopropylpropan-2-yl)-N-((R)-1-(3-(difluoromethyl)-2-fluorophenyl)ethyl)-4-(((1R,5S,6s)-3-methyl-3-azabicyclo[3.1.0]hexan-6-yl)amino)-6-oxo-1,6-dihydropyridine-3-carboxamide], the Kd in test [1] came to 343 nM. Further, in test [2], half-maximal inhibition (IC50) was put at 147 nM.

As for `C[C@@H](NC(=O)c1cn([C@H]2C[C@@H]2C(F)F)c(=O)cc1N[C@H]1[C@@H]2CN(C)C[C@@H]21)c1cccc(C(F)F)c1F` [Example 113, N-((R)-1-(3-(difluoromethyl)-2-fluorophenyl)ethyl)-1-((1S,2S)-2-(difluoromethyl)cyclopropyl)-4-(((1R,5S,6s)-3-methyl-3-azabicyclo[3.1.0]hexan-6-yl)amino)-6-oxo-1,6-dihydropyridine-3-carboxamide], the Kd in test [1] is 6 nM. It took 10.5 nM to reach half-maximal inhibition in test [2] (IC50).

In the case of `C[C@@H](NC(=O)c1cn([C@@H]2C[C@H]2C(F)F)c(=O)cc1N[C@H]1[C@@H]2CN(C)C[C@@H]21)c1cccc(C(F)F)c1F` [Example 114, N-((R)-1-(3-(difluoromethyl)-2-fluorophenyl)ethyl)-1-((1R,2R)-2-(difluoromethyl)cyclopropyl)-4-(((1R,5S,6s)-3-methyl-3-azabicyclo[3.1.0]hexan-6-yl)amino)-6-oxo-1,6-dihydropyridine-3-carboxamide], the equilibrium dissociation constant (Kd) in test [1] worked out at 13 nM. This molecule also gave an IC50 in test [2] of 21.1 nM.

As for `C[C@@H](NC(=O)c1cn(C2(C(F)(F)F)CC2)c(=O)cc1N[C@H]1[C@@H]2CN(C)C[C@@H]21)c1cccc(C(F)F)c1F` [Example 119, N-((R)-1-(3-(difluoromethyl)-2-fluorophenyl)ethyl)-4-(((1R,5S,6s)-3-methyl-3-azabicyclo[3.1.0]hexan-6-yl)amino)-6-oxo-1-(1-(trifluoromethyl)cyclopropyl)-1,6-dihydropyridine-3-carboxamide], the Kd in test [1] stood at 23 nM. The same molecule returned a half-inhibitory concentration (IC50) in test [2] of 36.6 nM.

Regarding `C[C@@H](NC(=O)c1cn(C2(C(F)F)CC2)c(=O)cc1N[C@H]1[C@@H]2CN(C)C[C@@H]21)c1cccc(C(C)(F)F)c1F` [Example 121, N-((R)-1-(3-(1,1-difluoroethyl)-2-fluorophenyl)ethyl)-1-(1-(difluoromethyl)cyclopropyl)-4-(((1R,5S,6s)-3-methyl-3-azabicyclo[3.1.0]hexan-6-yl)amino)-6-oxo-1,6-dihydropyridine-3-carboxamide], the Kd in test [1] was determined as 21 nM. The midpoint of inhibition in test [2], the IC50, lay at 28.9 nM.
